We go through 7 compounds from PMC2693498 (Retrovirology, 2009).

Values joined by “and” are separate entries in the source; they are usually repeats but may differ in a detail not shown here. Equal entries are not always repeated. Where two headings read alike, the source gives them in different places.

Series [1] deals with T1, HIV-1 RT and ddNTP-terminated DNA primer/template (Human immunodeficiency virus type 1 group M subtype B, UniProt P04585).
T1 construct: Wild-type HIV-1 RT p66/p51 heterodimers; 6-His (N); made in house
As to the kind of experiment: DEC formation assay (gel shift). Format: binding. The source says: The dead-end complex (DEC) refers to a salt-stable complex formed by HIV-1 RT/ddNMP-terminated DNA primer-template bound to the next dNTP (or ddNTP) that is resistant to being competed apart with excess template. When DEC forms, HIV-1 RT and the DNA primer-template are "trapped" in a state where the forward reaction (polymerization), backward reaction (terminal ddNMP-excision), or enzyme-DNA dissociation cannot occur. We investigated the DEC formation using TFV-terminated DNA/RT/FTC-TP and FTC-MP-terminated DNA/RT/TFV-DP to test the hypothesis that the incoming NRTI might act as the next nucleotide to the chain-terminated primer and form a DEC, thus stabilizing the pre-existing chain-termination. […] For these studies, formation of DEC was determined by three kinetic constants including the dissociation constant (Kd), the maximum percentage of DNA primer-template forming a tight binding RT-DNA complex (Bmax), and the ratio of Bmax/Kd which reflects the efficiency of DEC formation. Furthermore, two sets of DNA primer/templates ([…] and D26/D50) were used to address whether the observation was sequence-dependent.
DNA primers D19, D25, and D26 were 5'-end labeled with T4 polynucleotide kinase (New England Biolabs, Ipswich, MA) and [γ-^32P]ATP as previously described. […] The annealed primer/templates were analyzed by non-denaturing polyacrylamide gel (4–20% TBE) electrophoresis to ensure that the proper annealing had taken place.
The ability of HIV-1 RT to form a stable complex with NRTI-terminated primer/template in the presence of dNTP, ddNTP or NNRTI was assessed as previously described with modification. Two sets of primer/templates were tested using D19/D36A (D19/D36C) and D25/D50 (D26/D50). Labeled primer/template was chain-terminated by incubating a mixture containing 50 mM Tris-HCl (pH 7.8), 60 mM KCl, 5 mM MgCl2, 5 mM DTT, 300 μg/mL bovine serum albumin, 4.2 (v/v) % glycerol, 5 nM [5'-^32P]-labeled primer/template, 0.5 μM of ddATP or TFV-DP (for D19/D36A or D25/D50) or 0.5 μM of ddCTP or FTC-TP (for D19/D36C or D26/D50), and 200 nM HIV-1 RT for 5 min at 37°C and then placed on ice. […] Free dNTP, ddNTP, or EFV was added into the mixture and the mixture was incubated for 15 min at 25°C. At the end of the incubation, the mixture was placed on ice and mixed with 100 mM KCl and 1 A260 unit/mL (for D19/D36A and D19/D36C) or 5 A260 unit/mL (for D25/D50 and D26/D50) poly(rA).poly(dT)12–18. […] The gel was exposed to a storage phosphor screen and DEC formation was quantified using GE Storm 820 PhosphorImager and ImageQuant TL software (GE Healthcare, Piscataway, NJ).
The DEC formation was analyzed by plotting the fraction of the primer/template detected as a function of dNTP, ddNTP, or EFV concentration. […] Data were fitted by nonlinear regression to simple ligand binding equation: y = (Bmax × [ligand])/(Kd + [ligand]) using SigmaPlot 9.0 (Systat Software, Inc., San Jose, CA), where the ligand is the free dNTP, ddNTP, or EFV concentration, and y corresponds to the % of primer/template in DEC complex. The kinetic constants Kd represents the apparent dissociation constant of a ligand and Bmax is the maximum % of DEC complex formation.
Background: Mobility shift assays separate free from complexed probe on a gel.

The subject of the next series is HIV-1 strain xxLAI. Put plainly: microbe, parasite or virus in culture. It counts as cell-based. As to conditions: Human immunodeficiency virus 1, MT2.
Series [2] addresses T1, HIV-1 RT and ddNTP-terminated DNA primer/template. Details: method as in PMID 9153415, PMID 17517852. The following applies: TFV-terminated DNA+RT ref 51,55; read-out: Kd, reported values for DEC of TFV-terminated DNA+RT+dCTP; cited from earlier work.
The conditions of series [3]: in vivo; cited from earlier work.
The next series deals with T2, HIV-1 RT (Human immunodeficiency virus type 1 group M subtype B, UniProt P04585).
T2 construct: Wild-type HIV-1 RT p66/p51 heterodimers; 6-His (N); made in house
Put plainly: HIV-1 RT enzymatic (combination) inhibition assay, steady state, activated calf thymus DNA. It counts as biochemical.

For series [4] the following is noted: human, in vivo; cited from earlier work.
Setting [5] is: ligand added to ddCMP-terminated DNA D20/D36 + HIV-1 RT.
[6] abbreviates: ligand added to ddCMP-terminated DNA D27/D50 + HIV-1 RT.
Where [7] appears, read: TFV-terminated DNA 26/50-mer + HIV-1 RT, example experiment of Fig. 5.
Setting [8] is: TFV-terminated DNA 26/50-mer + HIV-1 RT, example experiment of Fig. 5, read-out: Kd (curve fit of Fig. 5).
Setting [9] is: ligand added to TFV-terminated DNA D20/D36 + HIV-1 RT.
The mark [10] stands for this setting: ligand added to TFV-terminated DNA D20/D36 + HIV-1 RT, read-out: Kd.
Setting [11] is: ligand added to TFV-terminated DNA D26/D50 + HIV-1 RT.
Where [12] appears, read: ligand added to ddAMP-terminated DNA D20/D36 + HIV-1 RT.
The mark [13] stands for this setting: ligand added to ddAMP-terminated DNA D20/D36 + HIV-1 RT, read-out: Kd.
Where [14] appears, read: ligand added to ddAMP-terminated DNA D26/D50 + HIV-1 RT.
Setting [15] is: [α-32P]-dATP incorporation as marker.
Where [16] appears, read: [α-32P]-dCTP incorporation as marker.

Protocol for HIV-1 strain xxLAI: The infected cells were incubated for 5 days at 37°C in 5% CO2. Antiviral activity was measured by determining the HIV-1 cytopathic effect by using the vital dye XTT (2,3-bis(2-methoxy-4-nitro-5-sulphophenyl)-2H-tetrazolium-5-carboxanilide) based colorimetric assay [61].
For the median-effect analysis, the compounds were combined at a 1:1 ratio based on their EC50. Six to eight concentrations of each single drug, two-drug combinations, and three-drug combinations were assayed in at least three independent experiments with quadruplicate wells for each experiment. The triple drug combination of TFV+FTC+EFV was studied by the median-effect analysis only. […] For the MacSynergy analysis, combinations of TFV+FTC, TFV+EFV, and FTC+EFV were tested in a checkerboard fashion in 96-well plates with the starting concentration for each compound fixed at three-fold to four-fold above the EC50 value. For the isobologram analysis, combinations of TFV+FTC, TFV+EFV, and FTC+EFV were tested in a checkerboard fashion with the starting concentration for each compound fixed at three-fold to four-fold above the EC50 value.
The degrees of synergy and antagonism were determined using CalcuSyn software (version 2.0, Biosoft, Cambridge, UK) which is based on median-effect principle by Chou and Talalay [62]. […] The IC50 value is calculated from the y-intercept (-m * log IC50), where m is the slope of the curve. […]
The MacSynergy II program (version 1.0, Ann Arbor, MI) calculates a theoretical additive value for each drug combination based on the values generated by the drugs alone using the Bliss Independence model [42]. […] A synergy volume is calculated by adding all of the positive values for each drug combination. […]
In our cell culture study, the score of synergy/antagonism was calculated from a set of 5 replicate parallel measurements and more than 3 sets of such experiments were conducted to test the reproducibility of the results. […]
Fractional inhibitory concentrations are calculated by dividing the EC50 of drug 1 with a fixed overlay of drug 2 by the EC50 of drug 1 alone (the x-coordinate).

In general, Kd refers to the constant that tells how readily two partners part at equilibrium. Turning to `Nc1ncnc2c1ncn2[C@H]1C[C@H](O)[C@@H](COP(=O)(O)OP(=O)(O)OP(=O)(O)O)O1` [dATP], the “fold more efficient DEC formation than TFV-DP” value in series [1] (ddCMP-terminated DNAs) is recorded as 24- to 65 fold. Further, the Bmax was 45 ± 14% in series [1] (ligand added to FTC-MP-terminated DNA D27/D50 + HIV-1 RT, ND = No DEC formation detected at 2 mM); 38.0 ± 4.4% in series [1] (setting [5]); 60 ± 3% in series [1] (setting [6]). The Kd in series [1] (ligand added to FTC-MP-terminated DNA D27/D50 + HIV-1 RT, ND = No DEC formation detected at 2 mM, read-out: Kd) came to 862 ± 229 µM.

As usually defined, the EC50 is the concentration needed to bring the measured effect to its halfway point. Read a high EC50 as a need for much substance. In turn, `C[C@H](Cn1cnc2c(N)ncnc21)OCP(=O)(O)O` [TFV, tenofovir] showed a 50% effective concentration (EC50) in the series on HIV-1 strain xxLAI of 13 µM.

The compound `Nc1nc(=O)n([C@@H]2CS[C@H](CO)O2)cc1F` [FTC, emtricitabine] registered a half-maximal effective concentration (EC50) in the series on HIV-1 strain xxLAI of 1.3 µM.

Regarding `Nc1ccn([C@H]2C[C@H](O)[C@@H](COP(=O)(O)OP(=O)(O)OP(=O)(O)O)O2)c(=O)n1` [dCTP], the “Bmax (curve fit of Fig. 5)” value in series [1] (setting [7]) was found to be 49.2 ± 2.7%. Besides, the Kd in series [1] (setting [8]) was 185 ± 28 µM; in series [1] (setting [10]) it was 232 ± 12 µM; in series [1] (setting [13]), 21.5 ± 9.8 µM; in series [2], 1 to 5 µM. Also, the Bmax in series [1] (setting [9]) turned out to be 18.5 ± 6.7%; in series [1] (setting [11]), 50.0 ± 5.5%; in series [1] (setting [12]) it was 34.2 ± 4.6%; in series [1] (setting [14]), 55.8 ± 3.4%.

On to `O=C1Nc2ccc(Cl)cc2[C@@](C#CC2CC2)(C(F)(F)F)O1` [EFV, efavirenz], for which the EC50 in the series on HIV-1 strain xxLAI came out at 0.0056 µM. For the same compound, the “steady-state plasma EFV concentration” value in series [3] was 5 µM.

One may read the IC50 as the point on the concentration scale where inhibition reaches its midpoint. With `Nc1nc(=O)n([C@@H]2CS[C@H](COP(=O)(O)OP(=O)(O)OP(=O)(O)O)O2)cc1F` [FTC-TP, FTC triphosphate], the values for the IC50 at HIV-1 RT (setting [15]) and at HIV-1 RT (setting [16]) were 5 ± 3.2 µM and 2.4 ± 0.8 µM, respectively. Also, the “Bmax (curve fit of Fig. 5)” value in series [1] (setting [7]) is 50.4 ± 1.1%. The dissociation constant Kd worked out at 52.6 ± 3.4 µM in series [1] (setting [8]), 250 ± 11 µM in series [1] (setting [10]) and 171 ± 28 µM in series [1] (setting [13]). Also, in series [1] (TFV-terminated DNA+RT, two sequence contexts: equal to dCTP in one, this fold in the other), the “fold more efficient DEC formation than dCTP” value is 3.9 fold and 4 fold. The “fold less efficient DEC formation than with dCTP” value in series [1] (ddAMP-terminated DNA+RT) is listed as 10 fold. The Bmax was 17.7 ± 3.9% in series [1] (setting [9]), 50.0 ± 5.0% in series [1] (setting [11]), 28.1 ± 4.7% in series [1] (setting [12]) and 60.2 ± 7.2% in series [1] (setting [14]). Besides, in series [4], the “concentration in patients' peripheral blood mononuclear cells (PBMC)” value is 5000 nM.

Take `C[C@@H](Cn1cnc2c(N)ncnc21)OCP(=O)(O)OP(=O)(O)OP(=O)(O)O` [TFV-DP, TFV diphosphate]: the figures for the IC50 at HIV-1 RT (setting [15]) and on HIV-1 RT (setting [16]) were 0.53 ± 0.08 µM and 0.82 ± 0.23 µM, respectively. For the same compound, the Bmax is 15.3 ± 2.7% in series [1] (setting [5]) and 55 ± 2% in series [1] (setting [6]). The “concentration in patients' peripheral blood mononuclear cells (PBMC)” value in series [4] was 500 nM.
